We go through 43 compounds from ChEMBL document CHEMBL1201862, “PubChem BioAssay data set” (2004).

Molecules are shown by their SMILES.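 Briefly, cells in 96-well plates were exposed to five compound concentrations for 48 h, and endpoints were estimated by linear interpolation. GI50 is the concentration that inhibits growth by half.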 Activity calls are given as the source filed them. Rule as the data show it: active = GI50 up to about 1.1 µM and inactive = higher. A value given as a limit tells only on which side of the number the result lay.

Among the test systems are SNB-78; HOP-18; LXFL 529; RXF 631; Hs-578T; MDA-MB-435; NCI/ADR-RES; MCF7; DU-145.
Holding throughout (experiment): growth of human tumour cells (NCI), 48 h

In the case of `CC(=O)NNc1nc(C)c(C(/C=C/c2ccc(Cl)cc2)=N\NS(=O)(=O)c2ccc(C)cc2)s1`, the GI50 in the experiment with SNB-78, with HOP-18, in the experiment with LXFL 529 and in the experiment on RXF 631 was > 100 µM (inactive) in each case.

Consider `COC(=O)CCC(NC(=S)N/N=C(\C)c1nccs1)C(=O)OC` (stereo not drawn), for which the GI50 with SNB-78 is > 100 µM (inactive); in the experiment on HOP-18 it was 21.2 µM (inactive); in the experiment on LXFL 529, 60.4 µM (inactive); in the experiment with RXF 631, 58.2 µM (inactive).

In the case of `COC(=O)[C@]1(C)CCC[C@@]2(C)C1CCC1=CC3(C(C)C)CCC12OO3` (stereo partly drawn), the GI50 in the experiment on SNB-78 was 51.3 µM (inactive); in the experiment on LXFL 529, 31.4 µM (inactive); in the experiment with RXF 631 it was > 100 µM (inactive).

Take `CSc1ccc2c(cc1=O)[C@@H](NC(=O)c1cccc([N+](=O)[O-])c1)CCc1cc(O)c(O)c(O)c1-2`: the GI50 in the experiment with HOP-18 was > 100 µM (inactive); in the experiment with LXFL 529, 35.8 µM (inactive); in the experiment on RXF 631 it was 36.1 µM (inactive).

Regarding `CCOC(=O)C1(C#N)C(c2ccccc2)CC(O)(c2ccc(Cl)cc2)C(C(=O)c2ccc(Cl)cc2)C1c1ccccc1` (stereo not drawn), the GI50 in the experiment on SNB-78 was 82.4 µM (inactive); with HOP-18, > 100 µM (inactive); in the experiment on LXFL 529 it was 69.5 µM (inactive).

As for `COc1ccc(N2C(=O)[C@@H]3[C@H](C2=O)c2[nH]c4ccccc4c2C2CCC(C(C)(C)C)C[C@@H]23)cc1` (stereo partly drawn), the GI50 in the experiment on SNB-78 is 23.7 µM (inactive); in the experiment with LXFL 529 it was 39.4 µM (inactive).

For `O=C1C(Cl)C(c2ccccc2Cl)N1n1cnc2ccccc2c1=O` (stereo not drawn), the GI50 with SNB-78 was > 100 µM (inactive); in the experiment on LXFL 529, 49.1 µM (inactive).

Turning to `O=[N+]([O-])C1C2C=CC(C2)[C@H]1c1ccc(Cl)cc1Cl` (stereo partly drawn), the GI50 in the experiment on SNB-78 is 48.4 µM (inactive); in the experiment on LXFL 529 it was 39.4 µM (inactive).

Take `O=C(c1ccccc1)c1c(CC(O)c2ccccc2)n(C(=O)c2ccccc2)c2ccccc12` (stereo not drawn): the GI50 in the experiment on LXFL 529 is 39.5 µM (inactive).

As for `CCOC(=O)CCc1c(C)c2c(OC)cc(OC)cc2oc1=O`, the figures for the GI50 in the experiment on SNB-78, in the experiment with HOP-18 and in the experiment on LXFL 529 were > 100 µM (inactive), 32.1 µM (inactive) and 62.5 µM (inactive), respectively.

For the compound `Clc1cc2ns[s+]c2cc1Cl`, the GI50 with SNB-78 was > 100 µM (inactive); with LXFL 529 it was 4.72 µM (inactive); in the experiment with RXF 631, 60.3 µM (inactive).

`CC1=C(C(=O)O)N2C(=O)[C@@H](NC(=O)C(c3ccc(O)cc3)N3CSC(=S)N(C(C)C)C3)C2SC1` (stereo partly drawn): the GI50 in the experiment on SNB-78, in the experiment on HOP-18 and in the experiment with LXFL 529 was > 100 µM (inactive) in each case.

On to `O=[N+]([O-])c1ccc(C(Cl)C(Cl)c2ccc(C(Cl)C(Cl)c3ccc([N+](=O)[O-])cc3[N+](=O)[O-])cc2)c([N+](=O)[O-])c1` (stereo not drawn), for which the GI50 in the experiment with SNB-78 was 3.44 µM (inactive); with LXFL 529, 0.92 µM (active); with RXF 631 it was 1.57 µM (inactive).

For `Cc1ccccc1NC(=O)c1nc(S)nc(N)c1-c1ccccc1C`, the GI50 in the experiment on SNB-78, with HOP-18 and in the experiment with LXFL 529 was > 100 µM (inactive) throughout.

On to `O=C1CN=C(C[N+](=O)[O-])c2ccccc21`, for which the GI50 in the experiment on SNB-78, with HOP-18, in the experiment on LXFL 529 and in the experiment on RXF 631 was > 100 µM (inactive) in each case.

For the compound `CCCCCCCCCCCCOCCCOP(=O)([O-])OCC[N+](C)(C)C`, the GI50 is 22.4 µM (inactive) in the experiment on Hs-578T; 25.2 µM (inactive) in the experiment with SNB-78; 32.7 µM (inactive) in the experiment with HOP-18; 23.9 µM (inactive) with MDA-MB-435; > 81.1 µM (inactive) in the experiment with NCI/ADR-RES; 45.2 µM (inactive) in the experiment with MCF7. Moreover, the GI50 in the experiment with DU-145 is 34.3 µM (inactive).

As to `CC(CN1CCN(CC(C)Nc2ccnc3cc(Cl)ccc23)CC1)Nc1ccnc2cc(Cl)ccc12` (stereo not drawn), the GI50 in the experiment on SNB-78 is 21.1 µM (inactive); in the experiment with LXFL 529, 16.6 µM (inactive); in the experiment with RXF 631, 12.4 µM (inactive).

As for `Cc1ccc(Oc2ccc(C(=O)c3cccc(C(=O)c4ccc(Oc5ccc(C)cc5)cc4)n3)cc2)cc1`, the GI50 in the experiment on SNB-78, in the experiment on HOP-18 and with LXFL 529 was > 100 µM (inactive) each time.

In the case of `Oc1cc(-c2ccccn2)nc2cc(F)ccc12`, the GI50 with SNB-78 is > 100 µM (inactive); with HOP-18 it was 40.4 µM (inactive); in the experiment on LXFL 529, > 100 µM (inactive); in the experiment on RXF 631 it was > 100 µM (inactive).

`CCN1c2ccccc2-c2c3c1cc(C)cc3c1ccccc1[n+]2CC`: the results for the GI50 with SNB-78, with LXFL 529 and in the experiment with RXF 631 were 2.64 µM (inactive), 0.384 µM (active) and 5.24 µM (inactive), respectively.

In the case of `COc1cc(CN[C@H]2CCc3cc(OC)c(OC)c(OC)c3-c3ccc(SC)c(=O)cc32)cc(OC)c1`, the GI50 in the experiment on SNB-78 was 0.0538 µM (active); in the experiment on LXFL 529 it was 0.0494 µM (active); with RXF 631, < 0.01 µM (active).

On to `NC(=S)NNC(=O)CCC(=O)Nc1ccc(Cl)cc1Cl`, for which the GI50 was > 100 µM (inactive) in the experiment with SNB-78, 26.1 µM (inactive) with LXFL 529 and > 100 µM (inactive) with RXF 631.

With `O=C(O)c1nc(-c2ccc(Cl)c(Cl)c2)nc2ccc(Cl)cc12`, the results for the GI50 with SNB-78 and in the experiment on LXFL 529 were 27.9 µM (inactive) and > 100 µM (inactive), respectively.

With `Cc1c(CCO)c(O)n2c(nc3ccccc32)c1C#N`, the values for the GI50 in the experiment on SNB-78, in the experiment on HOP-18 and in the experiment on LXFL 529 were 61 µM (inactive), 47.5 µM (inactive) and 36.6 µM (inactive), respectively.

On to `CC(=O)OC1COC(N2CCc3ccccc32)C(OC(C)=O)C1OC(C)=O` (stereo not drawn), for which the GI50 with SNB-78 is > 76.4 µM (inactive); in the experiment on HOP-18 it was > 100 µM (inactive); in the experiment with LXFL 529, > 100 µM (inactive); with RXF 631, > 100 µM (inactive).

Consider `O=C(Cc1nc2ccccc2s1)C(=O)Nc1cccc(C(F)(F)F)c1`, for which the GI50 in the experiment with SNB-78, in the experiment with HOP-18 and in the experiment on LXFL 529 was > 100 µM (inactive) each time.

Turning to `CN(c1ccc(Cl)cc1)S(=O)(=O)c1ccc([N+](=O)[O-])cc1`, the GI50 in the experiment with Hs-578T, with MDA-MB-435, in the experiment with NCI/ADR-RES, in the experiment with MCF7 and with DU-145 was > 100 µM (inactive) throughout.

Regarding `N#CC(C(=O)O)C(c1c(Cl)cccc1Cl)C(C#N)C(=O)O` (stereo not drawn), the GI50 with Hs-578T, in the experiment on MDA-MB-435, in the experiment with NCI/ADR-RES, in the experiment on MCF7 and with DU-145 was > 100 µM (inactive) each time.

With `COc1cc(C(=C2SCCS2)c2nccc3cc(OC)c(OC)cc23)c([N+](=O)[O-])cc1OC`, the GI50 with SNB-78 was 18 µM (inactive); with HOP-18, > 100 µM (inactive); in the experiment on LXFL 529, 18.5 µM (inactive).

As for `CC(=O)OCCOCn1cnc2c(Cl)nc(Cl)nc21`, the GI50 is 18.7 µM (inactive) in the experiment on Hs-578T; 17.3 µM (inactive) in the experiment on MDA-MB-435; 24.1 µM (inactive) in the experiment on NCI/ADR-RES; > 10 µM (inactive) in the experiment on MCF7; 19.5 µM (inactive) with DU-145.

`CSC1(SC2=NCCN2)SC2(NCCN2)S1`: the GI50 in the experiment with Hs-578T is 24.3 µM (inactive); in the experiment on MDA-MB-435 it was 15.4 µM (inactive); in the experiment with NCI/ADR-RES it was 31.8 µM (inactive); with MCF7, 3.18 µM (inactive); in the experiment with DU-145 it was 14.8 µM (inactive).

For `Oc1ccc(/C=N/c2ccccc2O)cc1`, the GI50 was 37.2 µM (inactive) in the experiment on Hs-578T; 16.9 µM (inactive) in the experiment with MDA-MB-435; 75 µM (inactive) in the experiment with NCI/ADR-RES; 27.4 µM (inactive) with MCF7; 17 µM (inactive) in the experiment on DU-145.

Take `CC(C)=CC(=O)N1CCN(C(=O)C=C(C)C)CC1`: the GI50 with SNB-78, in the experiment with HOP-18, with LXFL 529 and in the experiment with RXF 631 was > 100 µM (inactive) throughout.

On to `O=C(CCc1cccc(O)c1)NCCCNC(=O)CCc1cccc(O)c1`, for which the GI50 in the experiment on Hs-578T, in the experiment on MDA-MB-435, with NCI/ADR-RES, with MCF7 and in the experiment with DU-145 was > 100 µM (inactive) each time.

For the compound `O=C1C2C3CC(C4C5C=CC(C5)C34)C2C2C3CC(C12)C1C2C=CC(C2)C31` (stereo not drawn), the GI50 with SNB-78, in the experiment on HOP-18, in the experiment on LXFL 529 and with RXF 631 was > 100 µM (inactive) in each case.

For `C/C=C(/C)C(=O)OC1CC(C)[C@H]2CC(=O)C(C)=C2CC1C(C)(C)OC(C)=O` (stereo partly drawn), the GI50 with Hs-578T was 35.4 µM (inactive); in the experiment on MDA-MB-435 it was 28 µM (inactive); in the experiment with NCI/ADR-RES, 22.8 µM (inactive); in the experiment on MCF7 it was 40.6 µM (inactive); in the experiment with DU-145 it was 81.1 µM (inactive).

With `O=C(CC1C(=O)Nc2ccccc2[S+]1[O-])Nc1ccccc1` (stereo not drawn), the GI50 in the experiment with SNB-78, in the experiment on HOP-18, in the experiment with LXFL 529 and with RXF 631 was > 100 µM (inactive) throughout.

For the compound `CO[C@H]1C[C@H](O[C@H]2CC[C@@]3(C)[C@H](CC[C@@H]4[C@@H]3CC[C@]3(C)[C@@H](C5=CC(=O)OC5)CC[C@]43O)C2)O[C@H](C)[C@H]1O`, the GI50 in the experiment on Hs-578T is < 0.01 µM (active); in the experiment on MDA-MB-435 it was < 0.0111 µM (active); with NCI/ADR-RES, < 0.01 µM (active); in the experiment with MCF7, < 0.01 µM (active); with DU-145, < 0.01 µM (active).

Take `Cc1ccc2c(c1)C(=O)C1(C2)Cc2ccc(C)cc2C1=O`: the GI50 with Hs-578T, in the experiment with MDA-MB-435, in the experiment on NCI/ADR-RES, in the experiment on MCF7 and in the experiment on DU-145 was > 100 µM (inactive) throughout.

For the compound `CC(=O)O[C@H]1CCC2[C@@H]3CCC4=C(O)C(=O)C(C#N)C[C@]4(C)C3CC[C@@]21C` (stereo partly drawn), the results for the GI50 in the experiment on SNB-78 and with LXFL 529 were 47.5 µM (inactive) and 35 µM (inactive), respectively.

As to `O=C(c1ccccc1)c1cccc(C(=O)c2ccccc2)c1`, the GI50 was > 100 µM (inactive) in the experiment on SNB-78, > 100 µM (inactive) with HOP-18 and 74.1 µM (inactive) in the experiment on LXFL 529.

`COc1cc2c(c(OC)c1OC)-c1ccc(SC)c(=O)cc1C(CC(=O)Oc1ccccc1F)C2` (stereo not drawn): the GI50 with SNB-78 is 0.0206 µM (active); in the experiment with LXFL 529 it was 0.0266 µM (active).

Consider `C=CC(C)CCC(C/C=C(\C)CCCC(C)C)C(=C)CCCC(C)C` (stereo not drawn), for which the GI50 with Hs-578T, with MDA-MB-435, in the experiment on NCI/ADR-RES, with MCF7 and in the experiment on DU-145 was > 100 µM (inactive) in each case.
